Test results published in patent US6653478B2, “Substituted benzimidazol-2-ones as vasopressin receptor antagonists and neuropeptide Y modulators” (Ortho-McNeil Pharmaceutical, Inc., priority 2000, dated 2003).
pIC50: −log10 of the molar value. Structures can show the parent of a compound that is named as a salt.

Tests used:
human V1a receptor = human V1a receptor (Homo sapiens, UniProt P37288); test: V1a binding assay (3H-AVP displacement, HEK-293 membranes); design: expressed in transfected cells; host or cells: HEK-293 (membranes)
Chain of human V1a receptor (P37288 whole entry): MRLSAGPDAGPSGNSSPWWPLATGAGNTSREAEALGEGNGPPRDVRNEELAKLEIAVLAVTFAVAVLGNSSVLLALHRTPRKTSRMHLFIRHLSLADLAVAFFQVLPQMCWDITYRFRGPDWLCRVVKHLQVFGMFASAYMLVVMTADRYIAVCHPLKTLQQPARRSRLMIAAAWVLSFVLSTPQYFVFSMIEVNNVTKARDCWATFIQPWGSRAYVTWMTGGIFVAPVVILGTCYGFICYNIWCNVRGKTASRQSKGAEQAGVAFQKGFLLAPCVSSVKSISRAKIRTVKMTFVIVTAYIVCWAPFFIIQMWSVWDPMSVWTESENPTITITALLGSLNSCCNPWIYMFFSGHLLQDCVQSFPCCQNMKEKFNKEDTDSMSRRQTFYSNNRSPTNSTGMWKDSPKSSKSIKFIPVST
Summary of the method: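 Membranes competed against 3H-AVP (40-87 Ci/mmol, 10,000 cpm/well) in 50 mM Tris, 5 mM MgCl2, 0.1% BSA, pH 7.5, with protease inhibitors. Incubated 1 hour at room temperature, then filtered on PEI-presoaked GF/C and scintillation counted. Non-specific binding defined with 1.25 μM AVP.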

NPY2 receptors = biological target: T1, NPY2 receptors (Homo sapiens, UniProt P49146); test: Neuropeptide Y receptor binding assay (125I-PYY, KAN-TS cell membranes); conditions: 10 μM compound; for inhibition at 10 µM: read-out: NPY-2@10, % Inh
T1 construct: Cell Membranes from KAN-TS cells having NPY2 receptors; endogenous in cells; host or cells: KAN-TS cells (membranes)
T1 sequence (P49146 1-381): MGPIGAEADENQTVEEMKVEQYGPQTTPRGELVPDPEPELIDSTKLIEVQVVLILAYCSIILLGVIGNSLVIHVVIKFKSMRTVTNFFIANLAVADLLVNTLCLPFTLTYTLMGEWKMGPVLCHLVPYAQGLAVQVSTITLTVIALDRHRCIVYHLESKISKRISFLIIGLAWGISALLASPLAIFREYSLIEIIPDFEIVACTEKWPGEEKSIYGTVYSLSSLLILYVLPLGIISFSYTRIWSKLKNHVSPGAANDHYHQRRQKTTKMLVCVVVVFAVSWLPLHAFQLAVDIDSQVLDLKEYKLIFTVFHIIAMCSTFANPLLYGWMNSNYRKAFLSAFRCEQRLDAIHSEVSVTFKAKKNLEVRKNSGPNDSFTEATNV
Summary of the method: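 Membranes from KAN-TS cells competed with 125I-PYY in binding buffer containing BSA, test compound at 10 μM final, 1 hr at room temperature. Nonspecific binding defined with 1 μM PYY final. Tubes centrifuged, washed with PBS and bound radioactivity gamma-counted.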

Row | Molecule | pIC50 (human V1a receptor) | inhibition at 10 µM (NPY2 receptors) [%] | NPY-2@10, % Inh (NPY2 receptors) [%]
1 | CCN(CC)CCn1c(=O)n(C2CCN(C(=S)NC(c3ccccc3)c3ccccc3)CC2)c2ccccc21 [Compound 35, 1-(N1-Piperidinocarbothioyldiphenylmethylamino-4-yl)-3-(2-diethyaminoethyl)-1,3-dihydrobenzimidazol-2-one] | 7.12 | 74 | 
2 | NCCCn1c(=O)n(C2CCN(C(=S)NC(c3ccccc3)c3ccccc3)CC2)c2ccccc21 [Compound 55, 1-[(N1-Piperidinocarbothioyldiphenylmethylamino)-4-yl]-3-(3-aminopropyl)-1,3-dihydrobenzimidazol-2-one Monohydrochloride] | 7.57 | 82 | 
3 | 1-[(N1-Piperidinocarbothioyl-(1-L-carboxymethyl-2-phenylamino)-4-yl]-3-(3-aminopropyl)-1,3-dihydrobenzimidazol-2-one Hydrochloride [Compound 57] | 6.59 |  | 20
4 | N=C(N)NCCCn1c(=O)n(C2CCN(C(=S)NC(c3ccccc3)c3ccccc3)CC2)c2ccccc21 [Compound 59, 1-[(N1-Piperidinocarbothioyldiphenylmethylamino)-4-yl]-3-(3-guanidinopropyl)-1,3-dihydrobenzimidazol-2-one] | 7.49 | 90 | 
5 | CCN(CC)CCn1c(=O)n(C2CCN(C(=S)NC(Cc3ccccc3)C(=O)OC)CC2)c2ccccc21 [Compound 42, 1-(N1-Piperidinocarbothioyl-(2-phenyl-1-L-carboxymethyl)amino-4-yl)-3-(2-diethyaminoethyl)-1,3-dihydrobenzimidazol-2-one] | 7.42 | 10 | 
